Assay results reported in PubChem BioAssay AID248 (DTP/NCI, 2004).
“And” between values parts separate entries of the source, which are not always exact repeats. Identical values can stand only once. Inconclusive results and toxic doses are left out.

System: L1210 leukemia ip in BDF1 mice, survival T/C
Test: NCI In Vivo Anticancer Drug Screen. Data for tumor model L1210 Leukemia (intraperitoneal) in B6D2F1 (BDF1) mice
Details: higher = longer survival
Method in brief: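 Tumor was transplanted into mice, which were then dosed with test compound or vehicle alone. Survival was recorded for each group, and the treated figure was expressed relative to the control figure.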

[1] = endpoint: mean survival time, dose: 75.0 mg/kg/injection, schedule: Q01DX001 (ip), vehicle: saline
[2] = endpoint: mean survival time, dose: 100.0 mg/kg/injection, schedule: Q04DX003 (ip), vehicle: saline

With `N#[N+]c1cnc([O-])[nH]c1=O` the T/C (endpoint: mean survival time, dose: 0.31 mg/kg/injection, schedule: Q#A X Z (ip), vehicle: methylcellulose (MC)) was 103 % of control, the T/C (endpoint: mean survival time, dose: 0.6 mg/kg/injection, schedule: Q01DX Z (im), vehicle: saline) was 102 % of control and the T/C (endpoint: mean survival time, dose: 0.6 mg/kg/injection, schedule: Q01DX Z (ip), vehicle: saline) was 104 % of control. The T/C (endpoint: mean survival time, dose: 0.62 mg/kg/injection, schedule: Q#A X Z (ip), vehicle: methylcellulose (MC)) was 108 % of control, the T/C (endpoint: mean survival time, dose: 1.0 mg/kg/injection, schedule: Q01DX009 (ip), vehicle: saline) was 119 % of control and the T/C (endpoint: mean survival time, dose: 1.2 mg/kg/injection, schedule: Q01DX Z (ip), vehicle: saline) was 120 % of control. For the same molecule, the T/C (endpoint: mean survival time, dose: 1.75 mg/kg/injection, schedule: Q01DX Z (ip), vehicle: carboxymethylcellulose (CMC)) was 115 % of control, the T/C (endpoint: mean survival time, dose: 2.0 mg/kg/injection, schedule: Q01DX009 (sc), vehicle: carboxymethylcellulose (CMC)) was 103 % of control and the T/C (endpoint: mean survival time, dose: 2.5 mg/kg/injection, schedule: Q01DX006 (iv), vehicle: saline) was 110 % of control. The T/C (endpoint: mean survival time, dose: 2.5 mg/kg/injection, schedule: Q01DX010 (ip), vehicle: saline) was 107 % of control, the T/C (endpoint: mean survival time, dose: 2.5 mg/kg/injection, schedule: Q01DX Z (sc), vehicle: steriod suspending solution) was 112 % of control and the T/C (endpoint: mean survival time, dose: 3.75 mg/kg/injection, schedule: Q03DX Z (ip), vehicle: methylcellulose (MC)) was 123 % of control. The T/C (endpoint: mean survival time, dose: 4.0 mg/kg/injection, schedule: Q01DX001 (sc), vehicle: carboxymethylcellulose (CMC)) was 100 % of control, the T/C (endpoint: mean survival time, dose: 4.0 mg/kg/injection, schedule: Q01DX009 (sc), vehicle: carboxymethylcellulose (CMC)) was 105 % of control and the T/C (endpoint: mean survival time, dose: 4.0 mg/kg/injection, schedule: Q## X008 (ip), vehicle: carboxymethylcellulose (CMC)) was 120 % of control. For the same molecule, the T/C (endpoint: mean survival time, dose: 4.0 mg/kg/injection, schedule: Q## X016 (ip), vehicle: carboxymethylcellulose (CMC)) was 119 % of control, the T/C (endpoint: mean survival time, dose: 4.0 mg/kg/injection, schedule: Q## X024 (ip), vehicle: carboxymethylcellulose (CMC)) was 118 % of control and the T/C (endpoint: mean survival time, dose: 5.0 mg/kg/injection, schedule: Q01DX006 (iv), vehicle: saline) was 115 % of control. For the same molecule, the T/C (endpoint: mean survival time, dose: 5.0 mg/kg/injection, schedule: Q01DX Z (ip), vehicle: saline) was 113 % of control and 118 % of control, the T/C (endpoint: mean survival time, dose: 5.0 mg/kg/injection, schedule: Q04DX003 (ip), vehicle: Klucel (hydroxypropylcellulose) (HPC)) was 124 % of control and the T/C (endpoint: mean survival time, dose: 5.0 mg/kg/injection, schedule: Q04DX003 (ip), vehicle: saline) was 104 % of control and 123 % of control. The T/C (endpoint: mean survival time, dose: 8.0 mg/kg/injection, schedule: Q01DX001 (sc), vehicle: carboxymethylcellulose (CMC)) was 103 % of control, the T/C (endpoint: mean survival time, dose: 8.0 mg/kg/injection, schedule: Q01DX009 (ip), vehicle: carboxymethylcellulose (CMC)) was 165 % of control and the T/C (endpoint: mean survival time, dose: 8.0 mg/kg/injection, schedule: Q01DX009 (ip), vehicle: saline) was 121 % of control. For the same molecule, the T/C (endpoint: mean survival time, dose: 8.0 mg/kg/injection, schedule: Q01DX009 (sc), vehicle: carboxymethylcellulose (CMC)) was 107 % of control, the T/C (endpoint: mean survival time, dose: 8.0 mg/kg/injection, schedule: Q## X016 (ip), vehicle: carboxymethylcellulose (CMC)) was 120 % of control and the T/C (endpoint: mean survival time, dose: 8.0 mg/kg/injection, schedule: Q## X024 (ip), vehicle: carboxymethylcellulose (CMC)) was 120 % of control. For the same molecule, the T/C (endpoint: mean survival time, dose: 8.75 mg/kg/injection, schedule: Q07DX Z (ip), vehicle: methylcellulose (MC)) was 112 % of control, the T/C (endpoint: mean survival time, dose: 9.49 mg/kg/injection, schedule: Q01DX Z (oral), vehicle: carboxymethylcellulose (CMC)) was 98 % of control and the T/C (endpoint: mean survival time, dose: 10.0 mg/kg/injection, schedule: Q01DX005 (ip), vehicle: Klucel (hydroxypropylcellulose) (HPC)) was 157 % of control. For the same molecule, the T/C (endpoint: mean survival time, dose: 10.0 mg/kg/injection, schedule: Q01DX006 (iv), vehicle: saline) was 106 % of control and 108 % of control, the T/C (endpoint: mean survival time, dose: 10.0 mg/kg/injection, schedule: Q01DX010 (ip), vehicle: saline) was 155 % of control and the T/C (endpoint: mean survival time, dose: 10.0 mg/kg/injection, schedule: Q01DX Z (im), vehicle: saline) was 118 % of control. The T/C (endpoint: mean survival time, dose: 10.0 mg/kg/injection, schedule: Q01DX Z (oral), vehicle: saline) was 106 % of control, the T/C (endpoint: mean survival time, dose: 10.0 mg/kg/injection, schedule: Q04DX003 (ip), vehicle: Klucel (hydroxypropylcellulose) (HPC)) was 124 % of control and the T/C (endpoint: mean survival time, dose: 10.0 mg/kg/injection, schedule: Q04DX003 (ip), vehicle: saline) was 114 % of control. The T/C (endpoint: mean survival time, dose: 14.2 mg/kg/injection, schedule: Q01DX Z (oral), vehicle: carboxymethylcellulose (CMC)) was 101 % of control, the T/C (endpoint: mean survival time, dose: 15.0 mg/kg/injection, schedule: Q01DX001 (ip), vehicle: saline) was 122 % of control and 91 % of control and the T/C (endpoint: mean survival time, dose: 15.0 mg/kg/injection, schedule: Q03DX Z (ip), vehicle: methylcellulose (MC)) was 152 % of control. The T/C (endpoint: mean survival time, dose: 16.0 mg/kg/injection, schedule: Q01DX001 (sc), vehicle: carboxymethylcellulose (CMC)) was 101 % of control, the T/C (endpoint: mean survival time, dose: 16.0 mg/kg/injection, schedule: Q01DX009 (sc), vehicle: carboxymethylcellulose (CMC)) was 124 % of control and the T/C (endpoint: mean survival time, dose: 16.0 mg/kg/injection, schedule: Q## X024 (ip), vehicle: carboxymethylcellulose (CMC)) was 115 % of control. The T/C (endpoint: mean survival time, dose: 17.5 mg/kg/injection, schedule: Q07DX Z (ip), vehicle: methylcellulose (MC)) was 124 % of control, the T/C (endpoint: mean survival time, dose: 20.0 mg/kg/injection, schedule: Q01DX006 (iv), vehicle: saline) was 102 % of control and 120 % of control and the T/C (endpoint: mean survival time, dose: 20.0 mg/kg/injection, schedule: Q01DX Z (oral), vehicle: saline) was 115 % of control. The T/C (endpoint: mean survival time, dose: 20.0 mg/kg/injection, schedule: Q04DX003 (ip), vehicle: saline) was 116 % of control and 119 % of control, the T/C (endpoint: mean survival time, dose: 21.3 mg/kg/injection, schedule: Q01DX Z (oral), vehicle: carboxymethylcellulose (CMC)) was 97 % of control and the T/C (endpoint: mean survival time, dose: 29.0 mg/kg/injection, schedule: Q01DX001 (ip), vehicle: alkali diluted with saline) was 153 % of control. The T/C (endpoint: mean survival time, dose: 32.0 mg/kg/injection, schedule: Q01DX Z (oral), vehicle: carboxymethylcellulose (CMC)) was 104 % of control, the T/C (endpoint: mean survival time, dose: 32.0 mg/kg/injection, schedule: Q01DX Z (oral), vehicle: methylcellulose (MC)) was 95 % of control and the T/C (endpoint: mean survival time, dose: 40.0 mg/kg/injection, schedule: Q01DX006 (iv), vehicle: saline) was 113 % of control. For the same molecule, the T/C (endpoint: mean survival time, dose: 40.0 mg/kg/injection, schedule: Q01DX009 (oral), vehicle: carboxymethylcellulose (CMC)) was 104 % of control, the T/C (endpoint: mean survival time, dose: 40.0 mg/kg/injection, schedule: Q01DX Z (oral), vehicle: saline) was 107 % of control and 116 % of control and the T/C (endpoint: mean survival time, dose: 80.0 mg/kg/injection, schedule: Q01DX009 (oral), vehicle: carboxymethylcellulose (CMC)) was 109 % of control. The T/C (endpoint: mean survival time, dose: 80.0 mg/kg/injection, schedule: Q01DX Z (oral), vehicle: saline) was 106 % of control, the T/C (endpoint: mean survival time, dose: 160.0 mg/kg/injection, schedule: Q01DX001 (oral), vehicle: carboxymethylcellulose (CMC)) was 104 % of control and the T/C (endpoint: mean survival time, dose: 240.0 mg/kg/injection, schedule: Q01DX001 (oral), vehicle: carboxymethylcellulose (CMC)) was 102 % of control. The T/C (endpoint: median survival time, dose: 5.0 mg/kg/injection, schedule: Q01DX009 (ip), vehicle: saline) was 164 % of control and the T/C (endpoint: median survival time, dose: 10.0 mg/kg/injection, schedule: Q01DX009 (ip), vehicle: saline) was 172 % of control and 200 % of control.

With `COc1cc(CNC2CCCCC2)ccc1O` the T/C [1] was 97 % of control and the T/C (endpoint: mean survival time, dose: 150.0 mg/kg/injection, schedule: Q01DX001 (ip), vehicle: saline) was 110 % of control.

With `CC(C)OCCCN=C(N)N` the T/C (endpoint: mean survival time, dose: 12.5 mg/kg/injection, schedule: Q01DX009 (ip), vehicle: saline) was 100 % of control, the T/C (endpoint: mean survival time, dose: 25.0 mg/kg/injection, schedule: Q01DX009 (ip), vehicle: saline) was 98 % of control and the T/C (endpoint: mean survival time, dose: 25.0 mg/kg/injection, schedule: Q04DX003 (ip), vehicle: saline) was 101 % of control. The T/C (endpoint: mean survival time, dose: 50.0 mg/kg/injection, schedule: Q01DX009 (ip), vehicle: saline) was 102 % of control and 104 % of control, the T/C (endpoint: mean survival time, dose: 50.0 mg/kg/injection, schedule: Q04DX003 (ip), vehicle: saline) was 96 % of control and the T/C [2] was 96 % of control.

With `COc1nccc(SC)n1` the T/C (endpoint: mean survival time, dose: 95.0 mg/kg/injection, schedule: Q04DX003 (ip), vehicle: Klucel (hydroxypropylcellulose) (HPC)) was 110 % of control, the T/C (endpoint: mean survival time, dose: 100.0 mg/kg/injection, schedule: Q04DX003 (ip), vehicle: Klucel (hydroxypropylcellulose) (HPC)) was 107 % of control and 91 % of control and the T/C (endpoint: mean survival time, dose: 135.0 mg/kg/injection, schedule: Q04DX003 (ip), vehicle: Klucel (hydroxypropylcellulose) (HPC)) was 105 % of control. The T/C (endpoint: mean survival time, dose: 200.0 mg/kg/injection, schedule: Q04DX003 (ip), vehicle: Klucel (hydroxypropylcellulose) (HPC)) was 96 % of control and 97 % of control.

With `NNC(=O)CC(=O)NN` the T/C (endpoint: mean survival time, dose: 50.0 mg/kg/injection, schedule: Q01DX001 (ip), vehicle: saline) was 97 % of control, the T/C (endpoint: mean survival time, dose: 100.0 mg/kg/injection, schedule: Q01DX001 (ip), vehicle: saline) was 106 % of control and the T/C [2] was 110 % of control. The T/C (endpoint: mean survival time, dose: 200.0 mg/kg/injection, schedule: Q01DX001 (ip), vehicle: saline) was 97 % of control, the T/C (endpoint: mean survival time, dose: 200.0 mg/kg/injection, schedule: Q04DX003 (ip), vehicle: saline) was 111 % of control and the T/C (endpoint: mean survival time, dose: 400.0 mg/kg/injection, schedule: Q01DX001 (ip), vehicle: saline) was 97 % of control.

In the case of `CCOc1c(C(=O)O)cnc2ccccc12`, the T/C [1] is reported as 100 % of control.
